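The compound was tested at five concentrations on cells cultured in 96-well plates, with a 48-hour exposure period. The concentration for 50% growth inhibition is given as GI50.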 The source made the active and inactive calls. No stated cut-off is given here; in the data, active = GI50 up to about 1.1 µM and inactive = higher.
Experiments:
Test in all cases: NCI-60 cell line screen, 48 h
HCT-15 = system: HCT-15
SK-MEL-2 = system: SK-MEL-2
UO-31 = system: UO-31
IGROV-1 = system: IGROV-1
SF-295 = system: SF-295
NCI-H23 = system: NCI-H23
MDA-N = system: MDA-N
SK-MEL-5 = system: SK-MEL-5
MOLT-4 = system: MOLT-4
SF-539 = system: SF-539
UACC-257 = system: UACC-257
HT-29 = system: HT-29
M14 = system: M14
OVCAR-3 = system: OVCAR-3
786-0 = system: 786-0
PC-3 = system: PC-3
MDA-MB-435 = system: MDA-MB-435
T47D = system: T47D
U-251 = system: U-251
NCI/ADR-RES = system: NCI/ADR-RES

| SMILES | GI50 (HCT-15) [µM] | GI50 (SK-MEL-2) | GI50 (UO-31) | GI50 (IGROV-1) | GI50 (SF-295) | GI50 (NCI-H23) | GI50 (MDA-N) | GI50 (SK-MEL-5) | GI50 (MOLT-4) | GI50 (SF-539) | GI50 (UACC-257) | GI50 (HT-29) | GI50 (M14) | GI50 (OVCAR-3) | GI50 (786-0) | GI50 (PC-3) | GI50 (MDA-MB-435) | GI50 (T47D) | GI50 (U-251) | GI50 (NCI/ADR-RES) |
| --- | --- | --- | --- | --- | --- | --- | --- | --- | --- | --- | --- | --- | --- | --- | --- | --- | --- | --- | --- | --- |
| CCC1=CCC23C(=O)C=CC(=O)C2(C1)C(=O)c1cccc(OC)c1C3=O (stereo not given) | 18 | 22.7 µM (inactive) | 10.8 µM (inactive) | 13 µM (inactive) | 24.3 µM (inactive) | 21.1 µM (inactive) | 16.5 µM (inactive) | 16.8 µM (inactive) | 3.87 µM (inactive) | 18.4 µM (inactive) | 16.3 µM (inactive) | 20.3 µM (inactive) | 16 µM (inactive) | 10.1 µM (inactive) | 11.9 µM (inactive) | 14.9 µM (inactive) | 17.1 µM (inactive) | 0.409 µM (active) | 23 µM (inactive) | 20.2 µM (inactive) |
| CNc1ncnc2c1nnn2C | > 100 | > 100 µM (inactive) | > 100 µM (inactive) | > 100 µM (inactive) | > 100 µM (inactive) | > 100 µM (inactive) | > 100 µM (inactive) | > 100 µM (inactive) | > 100 µM (inactive) | > 100 µM (inactive) | > 100 µM (inactive) | > 100 µM (inactive) | > 100 µM (inactive) | > 100 µM (inactive) | > 100 µM (inactive) | > 100 µM (inactive) | > 100 µM (inactive) | > 100 µM (inactive) | > 100 µM (inactive) | > 100 µM (inactive) |
| CC(C)[Si](OC1=C(C(=O)N(C)c2ccccc2Cl)CCCC1)(C(C)C)C(C)C | 16.1 | 14.1 µM (inactive) | 14.5 µM (inactive) | 16.9 µM (inactive) | 7.52 µM (inactive) | 16.3 µM (inactive) | 16.4 µM (inactive) | 13.8 µM (inactive) | 14.1 µM (inactive) | 18 µM (inactive) | 10.2 µM (inactive) | 15.8 µM (inactive) | 16.1 µM (inactive) | 13.2 µM (inactive) | 17.1 µM (inactive) | 11.4 µM (inactive) | 16.4 µM (inactive) | 2.55 µM (inactive) | 12.1 µM (inactive) | 14.9 µM (inactive) |
| CN(C)CCCN1c2ccccc2C(C)(C)c2ccccc21 [DIMETACRINE] | 16.3 | 16.5 µM (inactive) | 13.9 µM (inactive) | 17.9 µM (inactive) | 17.4 µM (inactive) | 16.3 µM (inactive) | 14.2 µM (inactive) | 13.4 µM (inactive) | 13.7 µM (inactive) | 15.2 µM (inactive) | 11.7 µM (inactive) | 11.8 µM (inactive) | 15.5 µM (inactive) | 14 µM (inactive) | 14.4 µM (inactive) | 13.7 µM (inactive) | 13.2 µM (inactive) | 17.2 µM (inactive) | 12.4 µM (inactive) | 17.1 µM (inactive) |
| Nc1n[n+](CC(=O)c2ccccc2)c2sc(-c3ccccc3)nn12 | 75.2 | > 100 µM (inactive) | 79.3 µM (inactive) | > 100 µM (inactive) | 64.7 µM (inactive) | > 100 µM (inactive) | 84.7 µM (inactive) | 48.6 µM (inactive) | 90.6 µM (inactive) | 74.8 µM (inactive) | > 100 µM (inactive) | 55 µM (inactive) | 61.2 µM (inactive) | > 100 µM (inactive) | > 100 µM (inactive) | 73.8 µM (inactive) | 27.7 µM (inactive) | > 100 µM (inactive) | > 100 µM (inactive) | > 100 µM (inactive) |
| O=C(O)c1c2c(cc3c1CC(Cc1ccccc1)C3=O)CCC2 (stereo not given) | 41.7 | > 100 µM (inactive) | 16.6 µM (inactive) | > 100 µM (inactive) | > 100 µM (inactive) | > 100 µM (inactive) | > 100 µM (inactive) | > 100 µM (inactive) | 96.8 µM (inactive) | 76.6 µM (inactive) | > 100 µM (inactive) | 57.8 µM (inactive) | > 100 µM (inactive) | > 100 µM (inactive) | > 100 µM (inactive) | 64.3 µM (inactive) | > 100 µM (inactive) | > 100 µM (inactive) | > 100 µM (inactive) | > 100 µM (inactive) |
| O=Cc1c2n(c3ccccc13)N[C@@](Cc1ccc(O)cc1)(C(=O)O)C2 | 47.3 | > 100 µM (inactive) | > 100 µM (inactive) | > 100 µM (inactive) | 63.2 µM (inactive) | > 100 µM (inactive) | > 100 µM (inactive) | > 100 µM (inactive) | 60.3 µM (inactive) | > 100 µM (inactive) | 31 µM (inactive) | > 100 µM (inactive) | 65.6 µM (inactive) | 19.5 µM (inactive) | 89.1 µM (inactive) | 81.7 µM (inactive) | > 100 µM (inactive) | 82.4 µM (inactive) | > 100 µM (inactive) | 35.9 µM (inactive) |
| Cn1c2ccccc2c(=NNc2cccc(C(=O)O)c2)c2ccccc21 | 15.3 | 16.8 µM (inactive) | 14.3 µM (inactive) | 17.8 µM (inactive) | 16 µM (inactive) | 9.95 µM (inactive) | 16.1 µM (inactive) | 14.7 µM (inactive) | 3.97 µM (inactive) | 19.2 µM (inactive) | 28.5 µM (inactive) | 3.1 µM (inactive) | 19.6 µM (inactive) | 3.57 µM (inactive) | 9.79 µM (inactive) | 4.92 µM (inactive) | 13.3 µM (inactive) | 5.79 µM (inactive) | 4.69 µM (inactive) | 24.3 µM (inactive) |
| COc1ccc(/C=C/C(=N/NC(=O)N/N=C(/C=C/c2ccc(OC)cc2)C(C)C)C(C)C)cc1 | 49.5 | > 100 µM (inactive) | 76.2 µM (inactive) | > 100 µM (inactive) | 99.1 µM (inactive) | > 100 µM (inactive) | > 100 µM (inactive) | 95.9 µM (inactive) | 26.1 µM (inactive) | > 100 µM (inactive) | > 100 µM (inactive) | 42.3 µM (inactive) | 44.4 µM (inactive) | 41.9 µM (inactive) | > 100 µM (inactive) | 50.9 µM (inactive) | > 100 µM (inactive) | 25.9 µM (inactive) | 71 µM (inactive) | 69.7 µM (inactive) |

From ChEMBL document CHEMBL1201862, “PubChem BioAssay data set” (2004)
